Test system: Human tumor cells
Experiment: Soft Agar Assay (anchorage-independent growth, colony count after MTT staining)
Type: cell-based
Conditions: 0.3% agarose top layer over 0.6% agarose, 10-16 days at 37°C under 5% CO2
Method: Anchorage-independent growth is a characteristic of tumorigenic cell lines. Human tumor cells can be suspended in growth medium containing 0.3% agarose and an indicated concentration of a farnesyl transferase inhibitor. The solution can be overlayed onto growth medium solidified with 0.6% agarose containing the same concentration of farnesyl transferase inhibitor as the top layer. After the top layer is solidified, plates can be incubated for 10-16 days at 37°C under 5% CO2 to allow colony outgrowth. After incubation, the colonies can be stained by overlaying the agar with a solution of MTT (3-[4,5-dimethylthiazol-2-yl]-2,5-diphenyltetrazolium bromide, Thiazolyl blue) (1 mg/mL in PBS). Colonies can be counted and the IC50's can be determined.

SMILES	IC50
O=C(CC1CCOCC1)N1CCC(C2c3c(Br)cc(Cl)cc3CCc3cc(Br)c[n+]([O-])c32)CC1 (centres unmarked) [Example 40]	8 nM

Test system: COS Cell
Experiment: COS Cell IC50 (Cell-Based Assay), procedure of WO 95/10516
Conditions: one range stated for the listed examples
Method: FPT IC50 (inhibition of farnesyl protein transferase. in vitro enzyme assay) and COS Cell IC50 (Cell-Based Assay) were determined following the assay procedures described in WO 95/10516, published April 20. 1995. GGPT IC50 (inhibition of geranylgeranyl protein transferase, in vitro enzyme assay). Cell Mat Assay, and anti-tumor activity (in vivo anti-tumor studies) could be determined by the assay procedures described in WO 95/10516. The disclosure of WO 95/10516 is incorporated herein by reference thereto.

SMILES	IC50
O=C(C=C1CCOCC1)N1CCC([C@H]2c3ncc(Br)cc3CCc3cc(Cl)cc(Br)c32)CC1 [Example 2]	1.8 to 143 nM
O=C(CC1CCOCC1)N1CCC(C2c3c(Br)cc(Cl)cc3CCc3cc(Br)c[n+]([O-])c32)CC1 (centres unmarked) [Example 40]	1.8 to 143 nM
O=C(CN1CC[S+]([O-])CC1)N1CCN(C2c3ccc(Cl)c(Br)c3CCc3cc(Br)cnc32)CC1 (single isomer, unassigned) [Example 39]	1.8 to 143 nM
O=C(CC1CCOCC1)N1CCC([C@H]2c3ncc(Br)cc3CCc3cc(Cl)cc(Br)c32)CC1 [Example 1]	1.8 to 143 nM
O=C(CN1CCSCC1)N1CCC([C@H]2c3ncc(Br)cc3CCc3cc(Cl)cc(Br)c32)CC1 [Example 37]	1.8 to 143 nM
O=C(CC1CCCCO1)N1CCC([C@H]2c3ncc(Br)cc3CCc3cc(Cl)cc(Br)c32)CC1 (some centres unmarked) [Example 8]	1.8 to 143 nM
O=C(CC1CCSCC1)N1CCC([C@H]2c3ncc(Br)cc3CCc3cc(Cl)cc(Br)c32)CC1 [Example 5]	1.8 to 143 nM
